As a reminder, the IC50 is the concentration needed to halve the response being measured. The term melting point denotes the temperature, or range, at which the solid turns liquid. As a reminder, the inhibition is the percentage by which the read-out fell short of the control. Read a low inhibition as a response near the control.

SMILES strings stand for the structures.

Consider 11 molecules from patent publication US8354414B2, “Substituted bicyclic pyrimidines” (Cephalon, Inc, priority 2006, dated 2013).

For one data set, the target named is T1, His6-GSK-3β (Homo sapiens, UniProt P49841).
T1 construct: made in house; host or cells: Sf21 insect cells (baculovirus)
T1 sequence (P49841 2-419): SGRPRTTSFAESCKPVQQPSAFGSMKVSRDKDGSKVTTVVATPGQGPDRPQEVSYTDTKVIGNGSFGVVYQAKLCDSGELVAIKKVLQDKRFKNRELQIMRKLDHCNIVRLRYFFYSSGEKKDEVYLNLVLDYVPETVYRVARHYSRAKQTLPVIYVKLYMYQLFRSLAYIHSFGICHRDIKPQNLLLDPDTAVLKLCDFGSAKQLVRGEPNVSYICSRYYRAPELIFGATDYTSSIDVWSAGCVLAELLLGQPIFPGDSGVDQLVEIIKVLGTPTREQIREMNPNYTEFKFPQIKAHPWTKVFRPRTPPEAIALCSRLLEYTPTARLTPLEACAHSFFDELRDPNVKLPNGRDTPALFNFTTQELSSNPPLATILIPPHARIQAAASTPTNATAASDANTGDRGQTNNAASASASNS
Kind of data set: Inhibition of His6-GSK-3β kinase activity (ELISA-based format, time-resolved fluorescence readout). It counts as biochemical. Conditions: class symbols; read-out: GSK3β IC50. In outline:
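N-terminal His6-tagged full-length human GSK-3β (aa 2-419) expressed in Sf21 cells, 200 ng/ml, phosphorylating plate-coated GST-Rb with 20 μM ATP in pH 7.2 HEPES buffer, 30 min at 37° C. Phospho-Rb (Ser-780) detected by antibody plus Eu-labelled secondary, time-resolved fluorescence; IC50 from curves.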

Another data set concerns the target T2, CDK5/GST-p25 (Homo sapiens, UniProt Q00535).
T2 construct: The final construct, encoding for full-length human CDK5; made in house; host or cells: Sf21 insect cells (baculovirus co-infection)
Put plainly: Inhibition of CDK5/GST-p25 kinase activity (ELISA with time-resolved fluorescence readout). The data set is classed as biochemical. The conditions noted are these: for IC50: class symbols. In outline: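 Sf21-coexpressed full-length human CDK5 with GST-p25 (p35 aa 108-307), glutathione-purified, at 2 ng/ml was reacted for 20 min at 37 °C on plate-coated GST-Rb(773-928). Buffer was 20 mM HEPES pH 7.2, 10 µM ATP, 10 mM MgCl2 and 2.5% DMSO. Phospho-Rb Ser-780 was detected by Eu-labelled antibody TRF, and IC50 curves were fitted.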

T2 sequence (Q00535 whole entry): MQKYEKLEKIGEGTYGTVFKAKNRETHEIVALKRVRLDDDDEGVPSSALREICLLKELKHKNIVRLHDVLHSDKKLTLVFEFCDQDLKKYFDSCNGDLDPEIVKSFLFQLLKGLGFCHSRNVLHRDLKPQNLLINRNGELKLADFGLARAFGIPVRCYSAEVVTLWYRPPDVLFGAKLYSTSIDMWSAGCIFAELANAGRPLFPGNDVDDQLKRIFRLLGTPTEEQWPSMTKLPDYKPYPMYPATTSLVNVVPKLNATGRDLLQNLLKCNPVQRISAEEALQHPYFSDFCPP
T2 sequence (Q15078 108-307 partner limits assumed): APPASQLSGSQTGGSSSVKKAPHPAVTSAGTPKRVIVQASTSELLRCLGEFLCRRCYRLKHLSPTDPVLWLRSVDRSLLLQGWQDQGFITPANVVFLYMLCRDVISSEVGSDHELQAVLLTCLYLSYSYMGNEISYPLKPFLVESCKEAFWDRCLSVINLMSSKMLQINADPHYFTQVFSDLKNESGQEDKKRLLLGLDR

As for `CC(C)n1cc2c(C3C(=O)Nc4ccc(Cl)cc43)ncnc2n1` (stereo not drawn) [Example 381, 5-Chloro-3-(2-isopropyl-2H-pyrazolo[3,4-d]pyrimidin-4-yl)-1,3-dihydro-indol-2-one], the melting point was > 300 °C. On His6-GSK-3β, the IC50 was 0.3 to 3 µM. The IC50 against CDK5/GST-p25 is < 0.3 µM.
Turning to `C[C@@H](O)CNc1nc(C2C(=O)Nc3ccc(Cl)cc32)c2cn(C3CCCC3)nc2n1` (stereo partly drawn) [Example 375], the melting point is > 300 °C. Besides, the half-inhibitory concentration (IC50) on His6-GSK-3β was < 0.3 µM. For the same molecule, 10 µM produced 62% inhibition against CDK5/GST-p25.
In turn, `CC(C)Cn1cc2c(C3C(=O)Nc4ccc(Cl)cc43)nc(NCCCN3CCOCC3)nc2n1` (stereo not drawn) [Example 271, 5-Chloro-3-[2-isobutyl-6-(3-morpholin-4-yl-propylamino)-2H-pyrazolo[3,4-d]pyrimidin-4-yl]-1,3-dihydro-indol-2-one] displayed a melting point of 263 to 265.5 °C. Moreover, the concentration for half-maximal inhibition (IC50) at His6-GSK-3β is < 0.3 µM. Also, at CDK5/GST-p25, the IC50 was < 0.3 µM.
Turning to `O=C1Nc2ccc(F)cc2C1c1ncnc2c1cnn2C1CCCC1` (stereo not drawn) [Example 65, 3-(1-Cyclopentyl-1H-pyrazolo[3,4-d]pyrimidin-4-yl)-5-fluoro-1,3-dihydro-indol-2-one], the melting point lay within 254 to 257 °C. Besides, the half-inhibitory concentration (IC50) on His6-GSK-3β is > 10 µM. Moreover, the concentration for half-maximal inhibition (IC50) at CDK5/GST-p25 was > 10 µM.
Consider `O=C1Nc2ccc(C(F)(F)F)cc2C1c1ncnc2c1cnn2C1CCCC1` (stereo not drawn) [Example 56, 3-(1-Cyclopentyl-1H-pyrazolo [3,4-d]pyrimidine-4-yl)-5-trifluoromethyl-1,3-dihydro-indol-2-one], for which the melting point is > 300 °C. At His6-GSK-3β, the IC50 was > 10 µM. Further, at CDK5/GST-p25, the IC50 was > 10 µM.
`CCOCCn1cc2c(C3C(=O)Nc4ccc(Cl)cc43)nc(NCCN3CCOCC3)nc2n1` (stereo not drawn) [Example 217, 5-Chloro-3-[2-(2-ethoxy-ethyl)-6-(2-morpholin-4-yl-ethylamino)-2H-pyrazolo [3,4-d]pyrimidin-4-yl]-1,3-dihydro-indol-2-one] gave a melting point of 293 to 294 °C. For the same molecule, the IC50 at His6-GSK-3β was < 0.3 µM. The IC50 on CDK5/GST-p25 was < 0.3 µM.
On to `N#Cc1ccc2c(c1)NC(=O)C2c1ncnc2nn(C3CCCC3)cc12` (stereo not drawn) [Example 38, 3-(2-Cyclopentyl-2H-pyrazolo [3,4-d]pyrimidin-4-yl)-2-oxo-2,3-dihydro-1H-indole-6-carbonitrile], for which the melting point fell in the range of 340 to 344 °C. In addition, at His6-GSK-3β, the 50% inhibitory concentration (IC50) was > 10 µM. Moreover, the concentration for half-maximal inhibition (IC50) against CDK5/GST-p25 is > 10 µM.
As to `N#Cc1cccc2c1NC(=O)C2c1ncnc2c1cnn2C1CCCCC1` (stereo not drawn) [Example 70, 3-(1-Cyclohexyl-1H-pyrazolo [3,4-d]pyrimidin-4-yl)-2-oxo-2,3-dihydro-1H-indole-7-carbonitrile], the melting point was > 300 °C. The IC50 at His6-GSK-3β is > 10 µM. The half-maximal inhibitory concentration (IC50) on CDK5/GST-p25 is > 10 µM.
Regarding `CCCn1cc2c(C3C(=O)Nc4ccc(Br)cc43)nc(NCCN3CCOCC3)nc2n1` (stereo not drawn) [Example 202, 5-Bromo-3-[6-(2-morpholin-4-yl-ethylamino)-2-propyl-2H-pyrazolo [3,4-d]pyrimidin-4-yl]-1,3-dihydro-indol-2-one], the melting point is 299 to 303 °C. In addition, the half-inhibitory concentration (IC50) on His6-GSK-3β was < 0.3 µM. Besides, the IC50 against CDK5/GST-p25 is < 0.3 µM.
For `N#Cc1ccc2c(c1)C(c1ncnc3c1cnn3C1CCCCC1)C(=O)N2` (stereo not drawn) [Example 68, 3-(1-Cyclohexyl-1H-pyrazolo [3,4-de]pyrimidin-4-yl)-2-oxo-2,3-dihydro-1H-indole-5-carbonitrile], the melting point was > 300 °C. The IC50 on His6-GSK-3β is > 10 µM. At CDK5/GST-p25, the IC50 is > 10 µM.
For `CNc1nc(C2C(=O)Nc3ccc(C(F)(F)F)cc32)c2cn(C3CCCC3)nc2n1` (stereo not drawn) [Example 159, 3(-2-cyclopentyl-6-methylamino-2H-pyrazolo[3,4-d]pyrimidin-4-yl)-5-trifluoromethyl-1,3-dihydro-indol-2-one], the melting point was > 300 °C. Also, the 50% inhibitory concentration (IC50) at His6-GSK-3β was > 10 µM. For the same molecule, the 50% inhibitory concentration (IC50) against CDK5/GST-p25 was > 10 µM.
